# Key:
# [1] = tested on: D-amino acid oxidase (DAAO); details: cited from earlier work
# patients with dementia = details: depression in patients with dementia; cited from earlier work
# patients with MDD [2] = assay: 17-Item Hamilton rating scale for depression (HAMD-17) in randomized, double-blind, placebo-controlled trial; assay type: in vivo, human; details: for HAMD-17 Difference, Mean ± SD: baseline to week 8, 250-1500 mg/day, n = 20, p=0.011 vs placebo; for HAMD-17 score before treatment: baseline
# Protocol: (§1) It was conducted a randomized, double-blind, placebo-controlled trial in Taiwan. […] At the baseline and at the end of week 2, 4, 6 and 8, the assessments of 17-Item Hamilton rating scale for depression (HAMD-17) (Hamilton 1960), perceived stress scale (PSS), and global assessment of function (GAF) were arranged.
# (§2) This study was a pilot eight weeks trial with the aim of examining sodium benzoate for the treatment of MDD. Patients were evaluated by research psychiatrists after a thorough medical and neurological workup. The structured clinical interview for DSM-IV (SCID) (American Psychiatric Association 1994) was conducted for diagnosis, and eligible patients diagnosed with MDD by DSM-IV (American Psychiatric Association 1994b) were recruited. […] The dosage of study drugs was adjusted according to clinical evaluation.
# (§3) The data analyses were based on the intent-to-treat principle. The last observation carried forward was used to analyze all available data from the entire sample (i.e., cases with complete and incomplete data). A level of 0.05 (two-sided value) for type I errors was adopted for all analyses for statistical significance. Demographic characteristics, baseline and endpoint symptomatology were compared between two groups by t test (or Mann-Whitney U test) for continuous variables and chi-square test (or Fisher's exact test) for categorical variables.
# patients with MDD [3] = assay: Global assessment of function (GAF) in randomized, double-blind, placebo-controlled trial; assay type: in vivo, human; details: for GAF Difference, Mean ± SD: baseline to week 8, 250-1500 mg/day, n = 20, table p 0.103 vs placebo
# Protocol: as §1
# as §2, with “Patients” for “This study was a pilot eight weeks trial with the aim of examining sodium benzoate for the treatment of MDD. Patients”
# as §3
# patients with MDD [4] = assay: Perceived stress scale (PSS) in randomized, double-blind, placebo-controlled trial; assay type: in vivo, human; details: for PSS Difference, Mean ± SD: baseline to week 8, 250-1500 mg/day, n = 20, p=0.022 vs placebo
# Protocol: as §1, §2, §3
# patients with MDD [5] = assay: Mini-mental state examination (MMSE) score of single subjects of the treatment group; assay type: in vivo, human; details: for MMSE score before treatment: baseline
# Text: At the same time, the mini-mental state examination (MMSE) score, which is used to evaluate cognitive impairment, has improved from 26 to 30. […] Furthermore, person two has a decrease of HAMD-17 score from 26 to 12, and improved cognitive function as shown by an increased MMSE score from 23 to 26.
# patients with MDD [6] = assay: Safety assessment: UKU side-effects rating scale, routine laboratory tests, EKG, dropout; assay type: in vivo, human
# Protocol: In addition, the assessments of systemic side effects were examined biweekly by routine physical and neurological examinations and the Udvalg for Kliniske Undersogelser (UKU) side-effects rating scale (Lingjaerde, Ahlfors et al. 1987). The routine laboratory tests, including complete blood count (CBC), biochemistry, urine analysis and electrocardiogram (EKG), were checked at the baseline and at the end of week 8.
# Further, clinical assessment of safety was performed every week during the study period by face-to-face or telephone interview. Drop out was determined by research psychiatrists or patients if continuation of the study was regarded obviously more risky than beneficial.
# [7] = single subject one, after 8 weeks
# [8] = single subject three, after treatment
# [9] = single subject two, after treatment
# [10] = week 0, n = 20, before treatment
smiles,measurement,setting,value
O=C(O)c1ccccc1 [Benzoic acid],inhibition of DAAO activity,[1],can inhibit DAAO activity
CN1CCN2c3ncccc3Cc3ccccc3C2C1 (stereo not drawn) [mirtazapine],reduction of depression scores compared with placebo,patients with dementia,did not differ from the placebo group
CN[C@H]1CC[C@@H](c2ccc(Cl)c(Cl)c2)c2ccccc21 [sertraline],reduction of depression scores compared with placebo,patients with dementia,did not differ from the placebo group
O=C([O-])c1ccccc1.[Na+] [sodium benzoate],improvement in HAMD-17 scores compared with placebo therapy,patients with MDD [2]; 8 weeks,greater improvement
same,"HAMD-17 Endpoint, Mean ± SD","patients with MDD [2]; after 8 weeks, 250-1500 mg/day, n = 20, LOCF",19.3 ± 6.4
same,"HAMD-17 Difference, Mean ± SD",patients with MDD [2],7.5±4.9
same,"HAMD-17 Difference, Mean ± SD",patients with MDD [2]; listed as Benzoate,−7.5 ± 4.9
same,HAMD-17 score decrease,"patients with MDD [2]; single subject one, 8 weeks",20
same,HAMD-17 score after treatment,patients with MDD [2]; [7],4
same,HAMD-17 score before treatment,patients with MDD [2]; single subject one,24
same,HAMD-17 score decrease,patients with MDD [2]; single subject three,16
same,HAMD-17 score after treatment,patients with MDD [2]; [8],15
same,HAMD-17 score before treatment,patients with MDD [2]; single subject three,31
same,HAMD-17 score after treatment,patients with MDD [2]; [9],12
same,HAMD-17 score before treatment,patients with MDD [2]; single subject two,26
same,"HAMD-17 Baseline, Mean ± SD",patients with MDD [2]; [10],26.7 ± 5.2
same,improvement in GAF scores compared with placebo therapy,patients with MDD [3]; 8 weeks,slightly greater improvement
same,"GAF Difference, Mean ± SD",patients with MDD [3],5.5±6.0
same,"GAF Difference, Mean ± SD",patients with MDD [3]; listed as Benzoate,5.5 ± 6.0
same,"GAF Baseline, Mean ± SD",patients with MDD [3]; [10],57.4 ± 8.4
same,improvement in PSS scores compared with placebo therapy,patients with MDD [4]; 8 weeks,greater improvement
same,"PSS Endpoint, Mean ± SD","patients with MDD [4]; after 8 weeks, 250-1500 mg/day, n = 20, LOCF, p 0.019 vs placebo",28.9 ± 10.8
same,"PSS Difference, Mean ± SD",patients with MDD [4],6.4±9.9
same,"PSS Difference, Mean ± SD",patients with MDD [4]; listed as Benzoate,−6.4 ± 9.9
same,"PSS Baseline, Mean ± SD",patients with MDD [4]; [10],35.2 ± 5.8
same,MMSE score after treatment,patients with MDD [5]; [7],30
same,MMSE score before treatment,patients with MDD [5]; single subject one,26
same,MMSE score after treatment,patients with MDD [5]; [8],25
same,MMSE score before treatment,patients with MDD [5]; single subject three,23
same,MMSE score after treatment,patients with MDD [5]; [9],26
same,MMSE score before treatment,patients with MDD [5]; single subject two,23
same,Treatment-emergent adverse events by UKU side-effects rating scale,patients with MDD [6]; 8-week treatment,mild and not warranting medical treatment
same,dropout due to side effects,patients with MDD [6]; 8-week treatment,No dropout was due to side effects
same,"values of routine CBC, biochemistry and EKG tests after treatment",patients with MDD [6]; baseline and end of week 8,all within the normal ranges without a significant change
same,"commonly seen side effects of anti-depression medication (nausea, nervousness, restlessness, irregular heart rate, sweating, constipation)",patients with MDD [6]; subjects from the treatment group,not observed
same,inhibition of DAAO activity,[1],can inhibit DAAO activity
